From patent publication US20230140798A1, “SYNTHETIC PEPTIDES DIRECTED AGAINST THE METABOTROPIC GLUTAMATE RECEPTOR 5” (Lactocore, Inc., priority 2020, published 2023)
“Also recorded” adds a separate entry of the source.

How the values were obtained:
mGluR5 (GRM5) = test: HEK 293 cells mGluR5-luciferase reporter assay (β-arrestin2 recruitment); format: cell-based, human; details: for effect on CHPG-induced mGluR5 activity (luciferase signal): + 1 mM CHPG
Excerpt: The methodology was previously described by Kroeze (Kroeze et al. (2015). PRESTO-Tango as an open-source resource for interrogation of the druggable human GPCRome. Nat. Struct. Mol. Biol. 22(5): 362) and the principle is illustrated in FIG. 19. Briefly, the cells of HEK293 cell line are transfected with 3 types of plasmids:
Plasmid 1: encodes fusion GRMS-tTA protein. The linker between GRMS and tTA is sensitive to TEV-protease (www.addgene.org/66390/).
Plasmid 2: encodes β-arrestin2/TEV-protease fusion protein (www.addgene.org/107245/).
Plasmid 3: luciferase tTA reporter (www.addgene.org/64127/).
Sufficient quantities of fusion proteins were produced during 24 hours after transfection. mGluR5 (GRM5) activation by a selective agonist CHPG (SEQ ID NO: 18) (1) leads to recruiting of β-arrestin2/TEV-protease fusion protein (2), that cleaves the linker between GRM5 and tTA (3). Released tTA transcription factor (4) binds with its consensus sites in tTA luciferase reporter plasmid (5) that results in activation of luciferase expression. The activity of luciferase can be used to estimate the activity of mGluR5, and application of negative allosteric modulators of mGluR5 should lead to a dose-dependent decrease in luciferase activity in this system (FIG. 19).
Sufficient quantities of the plasmids were produced using standard applications before the experiment. HEK293 cells were co-transfected with three plasmids using polyethylenimine (PEI, 408727, Sigma-Aldrich, USA) 24 hours prior to agonists application. Transfected cells were treated with agonists/antagonists and incubated overnight (16 hours). Antagonists were introduced 10 minutes prior to agonists. Luciferase test was performed using Promega™ Luciferase Assay Systems Kit (PR-E1500, Promega, USA) according to the manufacturer's protocol.
CHPG—orthosteric selective mGlu5 receptor agonist (HB0033, HelloBio, USA). […]

Sprague-Dawley rats = test: Modified Porsolt Forced Swim test (FST), rats; format: in vivo; details: i.p.; group name 5 mg/kg, test substance 20 mg/kg
Method: As part of this modification, two tests are carried out within two days. The installation is a transparent cylinder, 30 cm high, 10 cm in diameter and filled with water (water temperature 21° C.-23° C.) to a mark at a height of 25 cm. On the first day, each animal is placed in the apparatus for ten minutes. Behavioral parameters are not recorded. The animals are placed in the cylinder for 10 minutes again on the second day. The duration of active (vigorous movements with all paws) and passive (weak strokes with hind legs) swimming, as well as immobility (immobilization) (Porsolt et al. (1977) Behavioral despair in mice: a primary screening test for antidepressants. Arch Int Pharmacodyn Ther. 229(2):327-36) are recorded. After each test, the rats are placed in a heated cage until dry. The behavioral indicators in this test are processed using the Real Timer Program developed by Open Science. The sequence of events, their duration, as well as conduct basic statistical data processing are recorded.

human mGluR5 = target: T1, human mGluR5 (Homo sapiens, UniProt P41594); test: Sodium glutamate-evoked [Ca^2+] responses in CHO-mGluR5 cells (calcium-flux imaging); format: cell-based
T1 construct: expressed in transfected cells; host or cells: CHO cells carrying pcDNA6/TR (T-REx system)
T1 sequence (P41594 21-1212): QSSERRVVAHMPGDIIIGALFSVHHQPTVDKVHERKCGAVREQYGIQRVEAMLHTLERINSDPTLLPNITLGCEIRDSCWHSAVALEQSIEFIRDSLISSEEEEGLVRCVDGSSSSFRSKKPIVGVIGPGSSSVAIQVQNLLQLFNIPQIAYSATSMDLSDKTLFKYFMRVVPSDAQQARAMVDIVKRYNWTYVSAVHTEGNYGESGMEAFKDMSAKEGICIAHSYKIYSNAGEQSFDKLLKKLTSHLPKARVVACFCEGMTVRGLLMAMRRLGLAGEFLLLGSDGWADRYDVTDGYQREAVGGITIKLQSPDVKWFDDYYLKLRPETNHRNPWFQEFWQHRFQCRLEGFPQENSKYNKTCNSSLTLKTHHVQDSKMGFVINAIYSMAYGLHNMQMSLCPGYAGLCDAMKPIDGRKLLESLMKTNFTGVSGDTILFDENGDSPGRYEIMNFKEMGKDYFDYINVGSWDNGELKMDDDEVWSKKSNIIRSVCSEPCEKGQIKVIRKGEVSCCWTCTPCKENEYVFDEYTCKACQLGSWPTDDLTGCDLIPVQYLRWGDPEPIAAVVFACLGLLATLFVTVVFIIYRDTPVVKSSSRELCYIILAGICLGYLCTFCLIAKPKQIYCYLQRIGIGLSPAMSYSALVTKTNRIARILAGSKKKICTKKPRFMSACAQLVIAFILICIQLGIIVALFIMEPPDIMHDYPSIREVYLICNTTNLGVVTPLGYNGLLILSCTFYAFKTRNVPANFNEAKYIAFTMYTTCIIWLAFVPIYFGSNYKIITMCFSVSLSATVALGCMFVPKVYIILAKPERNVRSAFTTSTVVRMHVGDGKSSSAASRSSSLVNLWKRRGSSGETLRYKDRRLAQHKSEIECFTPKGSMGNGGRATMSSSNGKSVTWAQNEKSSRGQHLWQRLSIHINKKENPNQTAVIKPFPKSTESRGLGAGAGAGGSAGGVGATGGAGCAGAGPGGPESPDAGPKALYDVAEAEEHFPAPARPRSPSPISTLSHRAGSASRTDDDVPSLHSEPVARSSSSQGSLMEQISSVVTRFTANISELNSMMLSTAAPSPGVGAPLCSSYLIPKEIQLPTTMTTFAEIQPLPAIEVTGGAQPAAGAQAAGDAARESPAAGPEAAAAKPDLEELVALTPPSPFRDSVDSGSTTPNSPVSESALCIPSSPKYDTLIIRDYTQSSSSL
Excerpt: CHO-mGluR5 cells with tetracycline-induced stable expression of human mGluR5.
The CHO cell line stably expressing human mGluR5 was generated using T-Rex System (Thermo Fisher Scientific Inc., Waltham, Mass., USA) according to the manufacturer's' instructions. Briefly, cDNA encoding human mGluR5 was subcloned into inducible expression vector pcDNA4/TO and was transfected into CHO cells carrying regulatory vector pcDNA6/TR that expresses the tetracycline repressor. After 2 weeks of selection using Blasticidin (5 µg/ml) and zeocin (250 µg/ml), pools of cells were screened for the expression of mGluR5 in the agonist-induced [Ca^2+] uptake assay. Positive cells were expanded and used. mGluR5 expression was induced by adding tetracycline (up to 1 µg/ml) 16 h before testing.
Fluorescent assays were performed using NOVOstar (BMG LABTECH, Ortenberg, Germany). CHO-mGluR5 cells were seeded into black-walled clear-bottomed 96-well plates at a density of 75,000 cells per well (complete media without antibiotics and containing 1 µg/ml of tetracycline to induce receptor expression) and were cultured overnight at 37° C. […] After a 3-min incubation at 37° C., changes in cell fluorescence ([…]) were monitored before and after the addition of the mGLuR5 agonist (1 mM sodium glutamate—Glu-Na). […]

Wistar rats [1] = test: Open Field test in Acute Foot Shock (AFS) stress model; format: in vivo; details: 4.5 mg/kg i.p. daily for ten days after AFS
Method: (§1) KEDV (SEQ ID NO: 4) and RAHE (SEQ ID NO: 3) (Lactocore Inc.) were administered intranasally (i.n), daily for 10 days at a dose of 1 mg/kg and 5 mg/kg. Peptides were prepared freshly each day in saline. The solution for i.n. administration of 5 mg/kg in a volume of 15 μl (single administration) contained 1.3 mg KEDV (SEQ ID NO: 4) or RAHE (SEQ ID NO: 3), and a solution for intranasal administration of 1 mg/kg in a volume of 10 μl (single administration) contained 0.26 mg KEDV (SEQ ID NO: 4) or RAHE (SEQ ID NO: 3).
(§2) The tetracyclic antidepressant Maprotiline (MAP, “Lyudiomil”), was used as a drug of comparison. Animals received a daily intraperitoneal injection (i.p) of MAP for ten days (M9651, Merck, in a dose of 4.5 mg/kg, dissolved in saline, 250 μl per administration).
(§3) Stimulation was performed automatically using a software randomizer.
The OF test is a classic method for assessing the level of motor activity and exploratory behavior of rodents in new stressogenic conditions. The test was performed in a cage of 90×90×45 cm without a roof, the floor of which was laid out on squares 15×15 cm and lit from above by a 60 W lamp. On the 5th day after stressing in the LH model, the rat was placed in the center of the OF. The following parameters were measured for 5 minutes: latency to start of moving, the number of crossed squares, the duration of rears and freezing.

Wistar rats [2] = test: Elevated Plus Maze test in Acute Foot Shock (AFS) stress model; format: in vivo
Method: as §1, §2, §3
EPM testing allows characterizing the behavior of rodents under the variable stress conditions, which makes it possible to assess the level of animal anxiety and anxiolytic effects of drugs. On the 6th day after the experimental exposure, the rats were tested one at a time for 5 min in the EPM installation, located at a height of 75 cm above the floor, and consisting of 2 open illuminated and 2 closed arms with exits. The time spent by the animal inside and outside the closed arms (in the open arms and in the center), the number of transitions between the arms, the number of stretch-attended postures were evaluated. Usually, animals tend to stay in the closed arms, anxiolytic treatment results in an increment of the time spent on the open arms of the maze (Pellow et al. (1985). Validation of open: closed arm entries in an elevated plus-maze as a measure of anxiety in the rat. J. Neurosci. Methods, 14(3), 149-167; Walf et al. (2007). The use of the elevated plus maze as an assay of anxiety-related behavior in rodents. Nat. Protoc., 2(2), 322-328).

Wistar rats [3] = test: Dexamethasone test (DXMT), serum corticosterone, AFS model; format: in vivo; details: 4.5 mg/kg i.p. daily, after AFS; DXM 10 μg/kg
Method: as §3
Evaluation of the stress-evoked release of glucocorticoid hormones (corticosterone, an analog of cortisol in humans) and its suppression by the introduction of synthetic glucocorticosteroid was performed on the 9-10th day after the development of LH in a two-day dexamethasone test according to the scheme, taking into account the specificity of the circadian rhythm of HPA axis function in rats (Zhukov (1993). The dexamethasone suppression test in genetically different rats exposed to inescapable and escapable electric shocks. Psychoneuroendocrinology, 18(7), 467-474.].
On the first day of the test (DXMT1) at 10:00 AM, animals were injected (i.p.) with saline, then at 04:00 PM on the same day peripheral blood samples were taken to determine the basal level of the hormone, which caused stress, and 30 minutes after taking the rat from the cage and receiving initial sample, re-taken blood to measure hormone stress level.
To study the sensitivity of the HPA system to feedback signals, rats were injected with dexamethasone (DXM, 10 μg/kg, i.p.) the next day (DXMT2) at 10 AM. The procedure for taking blood from the tail vein was repeated after 6 and 6.5 hours. The corticosterone content was determined by enzyme-linked immunosorbent assay with reagent kits “Corticosterone-ELISA” (“Hema”, RF) in two parallel samples.

[4] = MAP 4.5 mg/kg i.p., AFS, overall median 0.00

SMILES: NC(C(=O)O)c1cc(O)ccc1Cl (stereo not shown) [CHPG]
- luciferase signal (mGluR5 activation) (mGluR5 (GRM5); 1 mM, 16-hours incubation): significant induction of luciferase signal

SMILES: CNCCC(Oc1ccc(C(F)(F)F)cc1)c1ccccc1 (stereo not shown) [Fluoxetine, fluoxetine]
- antidepressant-like properties in FST (Sprague-Dawley rats): not observed

SMILES: N[C@@H](CCC(=O)[O-])C(=O)[O-].[Na+].[Na+] [GluNa, sodium glutamate]
- intracellular [Ca^2+] levels vs buffer (human mGluR5; 1 mM, CHO-mGluR5 cells): elevated intracellular [Ca^2+] levels

SMILES: CNCCCC12CCC(c3ccccc31)c1ccccc12 [MAP, Maprotiline]
- freezing behavior vs stressed saline-treated animals (Wistar rats [1]): significant reduction of freezing behavior
- proportion of animals that went to the open arms of the maze (Wistar rats [2]; 4.5 mg/kg i.p. daily, after AFS): 78%
- time in open arms <=Median: obs. − exp. (Wistar rats [2]; MAP 4.5 mg/kg i.p., AFS): −2.86
- time in open arms >Median: obs. − exp. (Wistar rats [2]; MAP 4.5 mg/kg i.p., AFS): 2.86
- time in open arms <=Median: observed (animals) (Wistar rats [2]; [4]): 2.00
- time in open arms >Median: observed (animals) (Wistar rats [2]; [4]): 7.00
- suppression of stress CS levels in serum by DXM (Wistar rats [3]): more than 50%

SMILES: Cc1cccc(C#Cc2ccccc2)n1 [MPEP, 2-methyl-6-(phenylethynyl)-pyridine]
- effect on GluNa-induced activation (human mGluR5; pre-treatment 0.1, 1, 10, 100 μM, 1 mM GluNa): abolished GluNa-induced activation

SMILES: Cc1ccc(O)c(N=Nc2ccccc2)n1 [SIB 1757]
- effect on CHPG-induced mGluR5 activity (luciferase signal) (mGluR5 (GRM5); 10 μM): inhibition of mGluR5 activity; also recorded: significant decrease of luciferase signal
- effect on CHPG-induced mGluR5 activity (luciferase signal) (mGluR5 (GRM5); 100 μM): inhibition of mGluR5 activity
